In patent US9090594B2, “PIM kinase inhibitors and preparation methods and use in medicinal manufacture thereof” (JIKAI BIOSCIENCES, INC., priority 2011, dated 2015) one finds inhibition data, which are given here for seven molecules.

T1 sequence (P11309 whole entry): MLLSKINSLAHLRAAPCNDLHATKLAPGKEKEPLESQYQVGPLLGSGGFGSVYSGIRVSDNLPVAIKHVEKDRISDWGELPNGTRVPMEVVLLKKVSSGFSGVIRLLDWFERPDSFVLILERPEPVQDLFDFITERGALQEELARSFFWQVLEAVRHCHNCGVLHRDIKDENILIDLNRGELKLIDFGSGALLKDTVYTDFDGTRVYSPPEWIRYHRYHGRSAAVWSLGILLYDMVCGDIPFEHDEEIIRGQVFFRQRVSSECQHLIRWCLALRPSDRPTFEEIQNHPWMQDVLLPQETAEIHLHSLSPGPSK

The assay has as its target T1, PIM-1 (Homo sapiens, UniProt P11309).
T1 construct: purchased Millipore Corporation 14-573
Nature of the assay: PIM Kinase Activity Assay-IMAP Fluorescence Polarization Assay (PIM-1). In kind it is biochemical. The settings on record: 3 μM concentration. The method, then:
In the present invention, the PIM activities of the compounds were tested by BioDuro (Building E, No. 29 Life Science Park Road, Changping District, Beijing, 102206, P.R. China). The method used for testing is PIM Kinase Activity Assay-IMAP Fluorescence Polarization Assay
PIM Kinase Activity Assay-IMAP Fluorescence Polarization Assay
PIM Is a serine/threonine protein kinase, they can phosphorylate 5-FAM labeled small peptide substrates. Fluorescence polarization is less for non-phosphorylated substrates since that can not bind to the binder (metal binding nanoparticles). On the other hand, fluorescence polarization is more for phosphorylated substrates since that can bind to the binder. The level of 5-FAM labeled small peptide substrates phosphorylation reflects the activities of PIM kinase. By measuring their ability of inhibiting PIM kinase of the compounds of the present invention, their activities of inhibiting PIM kinases can be determined.
EnVision (PerkinElmer, Waltham, Mass.)
PIM1 (Millipore Cat. #14-573) (Millipore Corporation, Billerica, Mass.)
5-FAM labeled peptide (5-FAM-RSRHSSYPAGT, AnaSpec Cat.#63801) (AnaSpec Inc., Fremont, Calif.)
IMAP FP Screening Express kit (IMAP FP Screening kit) (Molecular Devices Cat.# R8127) (Molecular Devices, Sunnyvale, Calif.)
a) 10 mM compound stock solution is diluted to appropriate concentration with 100% DMSO, then diluted 10 fold to targeted concentration with test butter to keep DMSO concentration at 10%
1 ul of compound solution and 4 ul of enzyme (PIM-1final concentration 0.025 nM, PIM-2 concentration 3 nM) is incubated at 23° C. for 15 min, 2.5 ul ATP (for PIM-1 and PIM-2, the final ATP concentrations are 30 uM and 5 uM respectively) 2.5 ul 5-FAM labeled peptide (final concentration 100 nM) was added to start the reaction. The reaction is run at 23° C. for 60 min. DMSO is used in place of compound stock solution as maximum reference and assay buffer is used in place of enzyme as minimum reference. c) add 30 ul IMAP binding reagent (containing 75% IMAP Buffer A, 25% IMAP Buffer B, 1/600 dilution of beads) to stop the reaction, incubated at room temperature for 60 min d) Measure fluorescence polarization, excitation wavelength: 485 nm, emission wavelength 530 nm. 6. Data Process IC50 values were calculated using Graphpad Prism®.
`O=C(Nc1cncnc1OC1CCNCC1)c1csc(C2CCNCC2)n1` [Compound 59, 2-(piperidin-4-yl)-N-(4-(piperidin-4-yloxy)pyrimidin-5-yl)thiazole-4-carboxamide] displayed an inhibition at 3 µM of 20 to 50%. The same measure for `Nc1sc(-c2c(F)cccc2F)nc1C(=O)Nc1cncnc1S(=O)(=O)CCCO` [Compound 63, 5-amino-2-(2,6-difluorophenyl)-N-(4-((3-hydroxypropyl)sulfonyl)pyrimidin-5-yl)thiazole-4-carboxamide]: 20 to 50%; for `CC(=O)Nc1nc(C(=O)Nc2cncnc2OC2CCNCC2)cs1` [Compound 62, 2-acetamido-N-(4-(piperidin-4-yloxy)pyrimidin-5-yl)thiazole-4-carboxamide]: 20 to 50%. The same measure for `O=C(Nc1cncnc1OC1CCNCC1)c1csc(N2CCOCC2)n1` [Compound 60, 2-morpholino-N-(4-(piperidin-4-yloxy)pyrimidin-5-yl)thiazole-4-carboxamide]: 20 to 50%. For the molecule `O=C(Nc1cncnc1OC1CCNCC1)c1csc(N2CCCCC2)n1` [Compound 61, 2-(piperidin-1-yl)-N-(4-(piperidin-4-yloxy)pyrimidin-5-yl)thiazole-4-carboxamide], the inhibition at 3 µM was 20 to 50%. `O=C(Nc1cncnc1OC1CCNCC1)c1coc(-c2c(F)cccc2F)n1` [Compound 57, 2-(2,6-difluorophenyl)-N-(4-(piperidin-4-yloxy)pyrimidin-5-yl)oxazole-4-carboxamide] gave an inhibition at 3 µM of 20 to 50%. Molecule `CC(C)c1nc(C(=O)Nc2cncnc2OC2CCNCC2)cs1` [Compound 33, 2-isopropyl-N-(4-(piperidin-4-yloxy)pyrimidin-5-yl)thiazole-4-carboxamide] returned an inhibition at 3 µM of 20 to 50%.
